In ChEMBL document CHEMBL1201862, “PubChem BioAssay data set” (2004):
Active and inactive are the calls of the source.

What was measured:
[1] = target: T1, Tyrosine-protein phosphatase non-receptor type 7 (Homo sapiens, UniProt P35236); assay: redox-active compounds inhibiting HePTP phosphatase – biochemical, fluorescence, mechanism study (AID 2068); assay type: functional
T1 sequence (P35236 whole entry): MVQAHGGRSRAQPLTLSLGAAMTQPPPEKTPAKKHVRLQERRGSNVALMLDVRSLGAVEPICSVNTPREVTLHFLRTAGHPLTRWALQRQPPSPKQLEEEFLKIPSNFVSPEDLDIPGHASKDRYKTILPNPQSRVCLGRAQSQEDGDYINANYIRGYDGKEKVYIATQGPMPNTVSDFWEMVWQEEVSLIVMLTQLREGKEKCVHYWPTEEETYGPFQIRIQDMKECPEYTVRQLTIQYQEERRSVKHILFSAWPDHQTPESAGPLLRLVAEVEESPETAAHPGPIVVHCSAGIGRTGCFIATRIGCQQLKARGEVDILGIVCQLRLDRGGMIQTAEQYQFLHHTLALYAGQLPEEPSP

[2] = tested on: HEK293; assay: cells; settings: Homo sapiens;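 note: cells exposed to compound for 14 hours overnight before viability readout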
[3] = target: Nucleotide-binding oligomerization domain-containing protein 2 (Homo sapiens, UniProt Q9HC29); assay: PubChem AID 2334; assay type: functional
Sequence of Nucleotide-binding oligomerization domain-containing protein 2 (Q9HC29 whole entry, the tested form may be a part): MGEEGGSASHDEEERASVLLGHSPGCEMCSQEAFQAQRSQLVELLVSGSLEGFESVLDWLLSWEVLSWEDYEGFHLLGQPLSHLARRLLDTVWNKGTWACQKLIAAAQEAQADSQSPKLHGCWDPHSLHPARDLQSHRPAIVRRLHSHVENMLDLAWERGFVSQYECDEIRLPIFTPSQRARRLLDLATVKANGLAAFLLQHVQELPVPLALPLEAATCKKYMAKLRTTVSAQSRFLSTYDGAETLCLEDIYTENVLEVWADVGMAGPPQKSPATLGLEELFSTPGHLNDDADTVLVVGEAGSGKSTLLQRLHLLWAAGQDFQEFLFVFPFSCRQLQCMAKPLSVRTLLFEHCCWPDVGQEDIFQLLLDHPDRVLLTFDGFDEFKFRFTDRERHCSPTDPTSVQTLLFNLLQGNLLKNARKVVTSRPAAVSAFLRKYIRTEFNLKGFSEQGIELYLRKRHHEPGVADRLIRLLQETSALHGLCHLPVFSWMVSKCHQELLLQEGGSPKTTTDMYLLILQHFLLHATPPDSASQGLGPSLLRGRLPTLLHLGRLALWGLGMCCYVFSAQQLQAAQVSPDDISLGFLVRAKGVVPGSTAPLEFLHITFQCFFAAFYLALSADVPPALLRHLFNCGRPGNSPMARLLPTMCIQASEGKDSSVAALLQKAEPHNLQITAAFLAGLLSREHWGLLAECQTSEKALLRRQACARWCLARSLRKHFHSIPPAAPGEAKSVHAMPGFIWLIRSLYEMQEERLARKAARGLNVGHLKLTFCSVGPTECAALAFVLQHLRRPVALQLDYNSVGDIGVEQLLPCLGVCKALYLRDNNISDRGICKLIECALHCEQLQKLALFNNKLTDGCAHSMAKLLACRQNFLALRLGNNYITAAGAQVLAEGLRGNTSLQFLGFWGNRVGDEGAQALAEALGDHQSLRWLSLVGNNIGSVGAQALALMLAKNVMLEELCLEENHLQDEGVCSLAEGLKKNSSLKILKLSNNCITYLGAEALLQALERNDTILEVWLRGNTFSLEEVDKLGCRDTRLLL

[4] = target: Tumor necrosis factor (Homo sapiens, UniProt P01375); assay: analog potency on TNFa NF-kB signaling – cell-based, revised, SAR follow-up (AID 2337); assay type: functional
Sequence of Tumor necrosis factor (P01375 whole entry, the tested form may be a part): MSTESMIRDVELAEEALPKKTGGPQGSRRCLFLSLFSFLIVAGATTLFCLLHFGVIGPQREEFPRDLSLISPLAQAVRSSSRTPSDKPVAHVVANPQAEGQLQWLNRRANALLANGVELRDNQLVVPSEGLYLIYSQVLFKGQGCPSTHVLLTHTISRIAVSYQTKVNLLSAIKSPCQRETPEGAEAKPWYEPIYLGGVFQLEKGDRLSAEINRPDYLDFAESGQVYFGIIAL

[5] = target: T2, Nucleotide-binding oligomerization domain-containing protein 1 (Homo sapiens, UniProt Q9Y239); assay: blockers of NOD1 pathway activity – revised, SAR follow-up (AID 2333); assay type: functional
T2 sequence (Q9Y239 whole entry): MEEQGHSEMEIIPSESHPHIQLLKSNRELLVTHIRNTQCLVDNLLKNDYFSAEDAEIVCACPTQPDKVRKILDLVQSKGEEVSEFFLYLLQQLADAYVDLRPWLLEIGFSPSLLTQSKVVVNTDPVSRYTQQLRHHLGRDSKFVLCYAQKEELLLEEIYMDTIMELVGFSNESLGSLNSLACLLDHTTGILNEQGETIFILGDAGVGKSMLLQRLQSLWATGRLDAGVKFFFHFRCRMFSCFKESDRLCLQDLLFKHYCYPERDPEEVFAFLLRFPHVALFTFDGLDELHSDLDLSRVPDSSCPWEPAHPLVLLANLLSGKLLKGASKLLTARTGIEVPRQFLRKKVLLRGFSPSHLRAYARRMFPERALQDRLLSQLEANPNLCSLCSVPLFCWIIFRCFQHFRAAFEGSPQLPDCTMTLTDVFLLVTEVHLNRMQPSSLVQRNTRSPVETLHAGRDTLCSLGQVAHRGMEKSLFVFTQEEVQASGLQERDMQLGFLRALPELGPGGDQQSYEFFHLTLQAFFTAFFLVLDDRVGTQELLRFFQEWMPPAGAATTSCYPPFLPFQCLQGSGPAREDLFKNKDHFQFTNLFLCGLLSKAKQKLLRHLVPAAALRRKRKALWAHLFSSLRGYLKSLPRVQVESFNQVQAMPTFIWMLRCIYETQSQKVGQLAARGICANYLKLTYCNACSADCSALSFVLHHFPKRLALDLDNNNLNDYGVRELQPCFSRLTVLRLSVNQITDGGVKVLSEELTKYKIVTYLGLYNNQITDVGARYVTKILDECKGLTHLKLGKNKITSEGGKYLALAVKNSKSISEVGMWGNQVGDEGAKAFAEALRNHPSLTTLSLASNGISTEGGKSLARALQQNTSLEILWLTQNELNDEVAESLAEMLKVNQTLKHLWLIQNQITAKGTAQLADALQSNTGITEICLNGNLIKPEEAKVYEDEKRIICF

[6] = target: G-protein coupled receptor 55 (Homo sapiens, UniProt Q9Y2T6); assay: inhibition of LPI-stimulated GPR55 beta-arrestin translocation – imaging, U2OS, beta-arrestin-GFP, LPI agonist, primary screen (AID 2013); assay type: functional;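 note: antagonist potency measured as reduced agonist-driven arrestin aggregation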
Sequence of G-protein coupled receptor 55 (Q9Y2T6 whole entry): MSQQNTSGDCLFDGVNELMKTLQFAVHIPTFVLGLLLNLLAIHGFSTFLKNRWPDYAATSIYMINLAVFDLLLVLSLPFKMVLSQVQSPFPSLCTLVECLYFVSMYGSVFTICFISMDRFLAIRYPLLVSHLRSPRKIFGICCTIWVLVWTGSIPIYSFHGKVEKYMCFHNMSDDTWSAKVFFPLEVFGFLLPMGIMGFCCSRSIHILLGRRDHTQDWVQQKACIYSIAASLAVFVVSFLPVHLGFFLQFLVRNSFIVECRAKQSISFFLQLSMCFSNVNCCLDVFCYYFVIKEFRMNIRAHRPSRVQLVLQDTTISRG

[7] = target: Cytochrome P450 2C9 (Homo sapiens, UniProt P11712)
Sequence of Cytochrome P450 2C9 (P11712 whole entry): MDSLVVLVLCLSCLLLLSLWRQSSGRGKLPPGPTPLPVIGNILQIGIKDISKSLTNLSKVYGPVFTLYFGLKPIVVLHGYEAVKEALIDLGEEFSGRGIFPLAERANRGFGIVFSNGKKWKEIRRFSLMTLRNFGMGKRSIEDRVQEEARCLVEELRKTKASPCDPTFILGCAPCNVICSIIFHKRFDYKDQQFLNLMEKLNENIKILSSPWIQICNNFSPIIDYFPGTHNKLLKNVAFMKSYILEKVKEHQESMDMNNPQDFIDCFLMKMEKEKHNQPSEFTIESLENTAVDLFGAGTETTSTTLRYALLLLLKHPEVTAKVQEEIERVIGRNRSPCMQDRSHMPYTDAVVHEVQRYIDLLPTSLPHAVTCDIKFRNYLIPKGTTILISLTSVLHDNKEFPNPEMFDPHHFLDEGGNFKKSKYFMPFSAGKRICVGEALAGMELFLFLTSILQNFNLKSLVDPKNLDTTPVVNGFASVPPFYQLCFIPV

[8] = Luminescence Cell-Based Dose Response HTS to Identify Activators of Luciferase Translation or Activity in H4 […] Cells. [Related pubchem assays: 1829 (Project Summary), 1814 (Primary HTS)]; assay type: functional
[9] = tested on: H4; assay: Luminescence Cell-Based Dose Response HTS to Identify Activators of 5'UTR Stem-Loop Driven Prion Protein mRNA Translation in H4 Neuroglioblastoma Cells. [Related pubchem assays: 1829 (Project Summary), 1814 (Primary HTS)]; assay type: functional; settings: Homo sapiens
[10] = THP-1 cell cytotoxicity, dose response, cytotoxicity control for non-replicating M. tuberculosis project (AID 489025); assay type: functional
[11] = HepG2 cell cytotoxicity, dose response, cytotoxicity control for non-replicating M. tuberculosis project (AID 489018); assay type: functional; settings: Mycobacterium tuberculosis
[12] = target: Cytochrome P450 2C19 (Homo sapiens, UniProt P33261); assay: Cytochrome panel assay with activity outcomes. Panel member name: p450-cyp2c19 Compounds with AC50 equal or less than 10 uM are considered active; assay type: functional; settings: read-out: AC50
Sequence of Cytochrome P450 2C19 (P33261 whole entry): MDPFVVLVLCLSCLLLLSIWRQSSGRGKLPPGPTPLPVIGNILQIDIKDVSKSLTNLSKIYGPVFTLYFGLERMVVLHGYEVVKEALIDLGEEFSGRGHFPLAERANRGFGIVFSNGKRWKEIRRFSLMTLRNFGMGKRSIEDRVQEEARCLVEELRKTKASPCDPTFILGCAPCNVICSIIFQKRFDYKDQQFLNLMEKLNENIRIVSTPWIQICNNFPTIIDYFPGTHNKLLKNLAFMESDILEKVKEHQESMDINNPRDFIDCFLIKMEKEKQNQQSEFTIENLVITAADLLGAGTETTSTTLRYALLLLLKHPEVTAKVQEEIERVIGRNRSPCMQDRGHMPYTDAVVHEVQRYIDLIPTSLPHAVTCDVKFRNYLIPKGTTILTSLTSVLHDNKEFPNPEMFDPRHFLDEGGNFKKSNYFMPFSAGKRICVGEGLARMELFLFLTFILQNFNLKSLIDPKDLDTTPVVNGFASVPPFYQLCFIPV

[13] = Luminescence Cell-Based Dose Confirmation HTS to Identify Activators of 5'UTR Stem-Loop Driven Alpha-Synuclein mRNA Translation in H4 Neuroglioblastoma Cells. [Related pubchem assays: 1829 (Project Summary), 1814 (Primary HTS)]; assay type: functional
[14] = Vero E6 cell cytotoxicity, dose response, cytotoxicity control for non-replicating M. tuberculosis project, secondary assay (AID 492998); assay type: functional, VeroE6; settings: Vero C1008
[15] = target: Cytochrome P450 3A4 (Homo sapiens, UniProt P08684);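 note: CYP3A4 tested as one member of a cytochrome P450 panel screen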
Sequence of Cytochrome P450 3A4 (P08684 whole entry): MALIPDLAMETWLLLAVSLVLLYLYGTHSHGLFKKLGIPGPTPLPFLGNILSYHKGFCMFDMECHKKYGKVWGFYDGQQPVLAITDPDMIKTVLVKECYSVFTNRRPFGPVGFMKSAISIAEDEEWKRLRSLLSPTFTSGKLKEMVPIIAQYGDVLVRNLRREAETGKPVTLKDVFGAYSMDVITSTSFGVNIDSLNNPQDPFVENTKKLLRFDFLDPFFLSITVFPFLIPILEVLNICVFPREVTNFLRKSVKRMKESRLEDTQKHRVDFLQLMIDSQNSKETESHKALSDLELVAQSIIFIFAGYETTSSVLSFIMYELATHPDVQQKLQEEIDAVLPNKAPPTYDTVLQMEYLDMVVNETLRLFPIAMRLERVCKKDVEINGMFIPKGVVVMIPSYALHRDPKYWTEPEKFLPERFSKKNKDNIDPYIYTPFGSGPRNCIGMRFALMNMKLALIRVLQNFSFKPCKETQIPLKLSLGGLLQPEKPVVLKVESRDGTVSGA

[16] = cells; assay type: functional
[17] = target: T3, Short transient receptor potential channel 4 (Mus musculus, UniProt Q9QUQ5); assay: calcium entry via TRPC4 opening agents – cell-based, HEK293 TRPC4/mu-opioid, Fluo-4 calcium, dose response (AID 434937); assay type: functional
T3 sequence (Q9QUQ5 whole entry): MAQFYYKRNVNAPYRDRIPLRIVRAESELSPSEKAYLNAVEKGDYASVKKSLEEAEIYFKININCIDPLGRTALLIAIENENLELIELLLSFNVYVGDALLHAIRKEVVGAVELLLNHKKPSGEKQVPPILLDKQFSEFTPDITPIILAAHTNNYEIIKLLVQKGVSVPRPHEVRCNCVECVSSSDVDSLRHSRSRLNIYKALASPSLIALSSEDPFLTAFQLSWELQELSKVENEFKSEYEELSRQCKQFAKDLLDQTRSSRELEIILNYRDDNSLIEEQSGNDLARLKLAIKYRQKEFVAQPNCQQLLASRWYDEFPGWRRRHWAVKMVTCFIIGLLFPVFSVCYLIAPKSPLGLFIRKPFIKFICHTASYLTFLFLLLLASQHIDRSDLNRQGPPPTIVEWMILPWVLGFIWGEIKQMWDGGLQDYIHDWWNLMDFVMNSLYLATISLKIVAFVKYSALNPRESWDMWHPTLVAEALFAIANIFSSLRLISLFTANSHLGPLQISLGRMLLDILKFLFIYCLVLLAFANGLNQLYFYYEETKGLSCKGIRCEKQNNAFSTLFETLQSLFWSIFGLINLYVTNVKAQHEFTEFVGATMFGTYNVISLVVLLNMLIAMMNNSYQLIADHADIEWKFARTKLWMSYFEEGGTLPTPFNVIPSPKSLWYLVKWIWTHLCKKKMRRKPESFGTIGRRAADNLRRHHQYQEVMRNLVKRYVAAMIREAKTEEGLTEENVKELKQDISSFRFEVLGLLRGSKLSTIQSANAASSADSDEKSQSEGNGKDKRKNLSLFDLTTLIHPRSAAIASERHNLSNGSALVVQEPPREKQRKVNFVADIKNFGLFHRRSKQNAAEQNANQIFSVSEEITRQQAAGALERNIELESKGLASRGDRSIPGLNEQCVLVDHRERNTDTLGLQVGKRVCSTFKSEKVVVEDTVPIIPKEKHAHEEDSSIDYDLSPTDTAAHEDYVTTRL

[18] = NIH-3T3 fibroblast cytotoxicity, dose response, cytotoxicity control, cell-based, fluorescence, Alamar Blue, secondary assay (AID 2327); assay type: functional;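 note: NIH-3T3 mouse fibroblasts cultured with fluconazole at 8 µg/mL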
[19] = target: T3, Short transient receptor potential channel 4; assay: block of DAMGO-driven TRPC4 calcium entry – cell-based, HEK293 TRPC4/mu-opioid, Fluo-4 calcium, dose response (AID 434942); assay type: functional;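 note: potency of inhibitors blocking the TRPC4 calcium response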

SMILES: O=C(Nc1ccccc1)Nc1ccc2nc(-c3ccco3)c(-c3ccco3)nc2c1
- IC50 [1]: 0.575 µM (active)

SMILES: Cc1ccc2cccc(N=Cc3c(C)[nH]n(-c4ccccc4)c3=O)c2n1
- IC50 [2]: > 20 µM (inactive)
- IC50 [3]: > 20 µM (inactive)
- IC50 [4]: > 20 µM (inactive)
- IC50 [5]: > 20 µM (inactive)

SMILES: C#CCOc1c(Br)cc(/C=N\NC(=O)CN2CCOCC2)cc1OCC
- IC50 [6]: 3.59 µM (active)

SMILES: CCCCOc1ccccc1NC(=O)c1scc2c1OCCO2
- IC50 [6]: 3.01 µM (active)

SMILES: Cc1cc(C)n(-c2nc(SCCN(C)C)c3c4c(sc3n2)CCCC4)n1
- AC50 [7]: 15.8 µM (inconclusive)
- EC50 [8]: > 120 µM (not active)
- EC50 [9]: > 120 µM (not active)
- CC50 [10]: 13.5 µM (active)
- CC50 [11]: 19.4 µM (active)
- AC50 [12]: 31.6 µM (inconclusive)
- EC50 [13]: > 120 µM (not active)
- CC50 [14]: 6.93 µM (active)
- AC50 [15]: 17.8 µM (inconclusive)
- IC50 [16]: 9.58 µM (active)
- EC50 [17]: 1.88 µM (active)
- EC50 [18]: 56 µM (active)

SMILES: CN1CCN(c2ccc(NC(=O)c3ccc(-c4ccc(Cl)cc4)o3)cc2)CC1
- EC50 [19]: 0.0667 µM (active)
- CC50 [10]: 17.6 µM (active)
- CC50 [11]: 8.12 µM (active)
- CC50 [14]: 17.2 µM (active)
- IC50 [16]: 3.04 µM (active)
